Here are results for one compound from ChEMBL document CHEMBL4765487, “From a Designer Drug to the Discovery of Selective Cannabinoid Type 2 Receptor Agonists with Favorable Pharmacokinetic Profiles for the Treatment of Systemic Sclerosis” (J Med Chem, 2021).

For orientation: pEC50 means the EC50 on a negative log10 scale, so that one unit is a factor of ten. Broadly, the Emax is the size of the effect at its maximum, as opposed to the concentration needed. A word on the half-life: it is the time in which the quantity being followed falls by half. Usually bioavailability stands for the share of a dose that reaches the circulation, judged against a reference dose that is usually intravenous. Read a low bioavailability as little systemic uptake. Broadly, the microsomal CLint is a measure of how fast metabolising enzymes remove a compound, apart from limits set by blood flow. Read a high microsomal CLint as rapid turnover. For orientation: CLint scaled means the rate of metabolic loss divided by the concentration. A high value points to faster metabolism. What is called share remaining is the share of the starting amount still present when the sample was taken. Lower therefore signals a greater loss.

pEC50: −log10 of the molar value. The source made the active and inactive calls. The rule behind the calls is not given here.

In one data set the target is Cannabinoid receptor 1 (Homo sapiens, UniProt P21554). The data set is described as follows: Agonist activity at human CB1 receptor expressing CHO cells co-expressing Galpha16 by calcium mobilization assay. It is filed as functional, cell-based.
Chain of Cannabinoid receptor 1 (P21554 whole entry): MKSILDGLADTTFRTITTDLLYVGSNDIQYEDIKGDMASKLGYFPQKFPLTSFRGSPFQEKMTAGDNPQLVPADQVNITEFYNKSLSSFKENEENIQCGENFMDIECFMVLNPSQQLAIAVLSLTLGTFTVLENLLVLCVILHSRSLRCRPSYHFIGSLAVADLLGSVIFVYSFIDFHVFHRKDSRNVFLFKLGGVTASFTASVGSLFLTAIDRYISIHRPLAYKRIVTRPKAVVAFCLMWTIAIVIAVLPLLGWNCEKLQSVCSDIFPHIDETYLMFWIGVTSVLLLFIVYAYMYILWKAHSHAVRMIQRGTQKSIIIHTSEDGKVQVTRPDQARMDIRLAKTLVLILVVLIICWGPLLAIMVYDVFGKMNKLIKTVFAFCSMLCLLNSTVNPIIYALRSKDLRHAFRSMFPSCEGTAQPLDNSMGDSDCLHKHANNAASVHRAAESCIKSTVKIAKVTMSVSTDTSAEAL
Data set [1] addresses T1, Cannabinoid receptor 2 (Homo sapiens, UniProt P34972). The data set is described as follows: Agonist activity at human CB2 receptor expressing CHO cells co-expressing Galpha16 by calcium mobilization assay. It is filed as functional, cell-based. (Calcium assays in cells follow changes in intracellular calcium, usually with a dye or a luminescent sensor.)
The target in data set [2] is T1, Cannabinoid receptor 2. The data set is described as follows: Agonist activity at human CB2 receptor expressing CHO cells co-expressing Galpha16 by calcium mobilization assay relative to CP55940. It is filed as functional, cell-based. The settings on record: filed as agonist.
The nature of data set [3]: Volume of distribution in BALB/c mouse at 5 mg/kg, po measured during 0.083 to 24 hrs post dose by LC-MS/MS analysis. The settings on record: in vivo, time 0.083-24 hrs. It is filed as ADME, organism-based.
A short description of data set [4]: Half life in BALB/c mouse at 1 mg/kg, iv measured during 0.083 to 24 hrs post dose by LC-MS/MS analysis. It is filed as ADME, organism-based. The settings on record: in vivo, time 0.083-24 hrs.
Data set [5] in a line: Oral bioavailability in BALB/c mouse at 5 mg/kg measured during 0.083 to 24 hrs post dose by LC-MS/MS analysis. The data set is classed as ADME, organism-based. The settings on record: in vivo, time 0.083-24 hrs.
For data set [6], the target named is T1, Cannabinoid receptor 2. The data set is described as follows: Agonist activity at human CB2 receptor expressed in HEK293 cells assessed as inhibition of forskolin-induced cAMP production incubated for 15 mins by cAMP HTRF assay. It is filed as functional, cell-based.
For data set [7], the target named is T2, Glucose-dependent insulinotropic receptor (Homo sapiens) (UniProt Q8TDV5).
T2 sequence (whole entry): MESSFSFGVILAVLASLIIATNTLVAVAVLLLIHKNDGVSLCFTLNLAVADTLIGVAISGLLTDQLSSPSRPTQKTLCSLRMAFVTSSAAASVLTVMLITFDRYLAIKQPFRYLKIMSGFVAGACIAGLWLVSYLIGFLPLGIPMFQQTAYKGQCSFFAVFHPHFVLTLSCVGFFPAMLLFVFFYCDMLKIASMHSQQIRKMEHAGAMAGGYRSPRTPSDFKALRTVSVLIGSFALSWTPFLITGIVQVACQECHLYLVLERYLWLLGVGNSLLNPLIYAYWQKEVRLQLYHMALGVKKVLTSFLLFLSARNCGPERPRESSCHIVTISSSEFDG
The data set is described as follows: Agonist activity at GPR119 (unknown origin) at 10 uM.

Data set [8] deals with Prostaglandin E2 receptor EP4 subtype (Homo sapiens) (UniProt P35408). Nature of the data set: Agonist activity at EP4 (unknown origin) at 10 uM.
Chain of Prostaglandin E2 receptor EP4 subtype (Homo sapiens) (P35408 whole entry): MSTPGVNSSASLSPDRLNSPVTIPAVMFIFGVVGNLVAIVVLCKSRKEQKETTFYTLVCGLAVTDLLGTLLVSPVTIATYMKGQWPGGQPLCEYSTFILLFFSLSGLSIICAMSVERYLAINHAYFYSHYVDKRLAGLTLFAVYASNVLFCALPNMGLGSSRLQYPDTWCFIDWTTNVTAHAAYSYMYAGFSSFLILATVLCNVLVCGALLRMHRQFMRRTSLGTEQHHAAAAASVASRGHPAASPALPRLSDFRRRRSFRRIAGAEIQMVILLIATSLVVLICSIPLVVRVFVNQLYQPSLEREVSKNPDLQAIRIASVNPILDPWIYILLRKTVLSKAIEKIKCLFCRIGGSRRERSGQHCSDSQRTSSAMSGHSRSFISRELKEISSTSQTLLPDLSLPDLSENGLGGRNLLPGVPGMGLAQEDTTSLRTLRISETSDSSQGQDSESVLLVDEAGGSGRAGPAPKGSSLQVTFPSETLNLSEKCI
Data set [9] concerns Mus musculus. The data set is described as follows: Antifibrotic activity in BALB/c mouse model of BLM-induced systemic sclerosis assessed as reduction in alpha-SMA expression at 1 to 5 mg/kg, sc dosed once daily for 4 weeks by immunohistochemical analysis. It is filed as functional, organism-based. The settings on record: dose 1-5 mg/kg.
Data set [10] can be described thus: Toxicity in BALB/c mouse model of BLM-induced systemic sclerosis assessed as effect on body weight at 1 to 5 mg/kg, sc dosed once daily for 4 weeks. The data set is classed as organism-based. The settings on record: in vivo, 672 h, dose 1-5 mg/kg.
The subject of data set [11] is Mus musculus. Nature of the data set: Antifibrotic activity in BALB/c mouse model of BLM-induced systemic sclerosis assessed as reduction in alpha-SMA mRNA expression at 1 to 5 mg/kg, sc dosed once daily for 4 weeks by quantitative real-time PCR analysis. The settings on record: dose 1-5 mg/kg. The data set is classed as functional, organism-based. (In general: In qPCR the cycle at which signal appears reflects the starting amount.)

The subject of data set [12] is Mus musculus. The data set is described as follows: Antifibrotic activity in BALB/c mouse model of BLM-induced systemic sclerosis assessed as reduction in TGF-beta mRNA expression at 1 to 5 mg/kg, sc dosed once daily for 4 weeks by quantitative real-time PCR analysis. The settings on record: dose 1-5 mg/kg. The data set is classed as functional, organism-based.
Data set [13] is described as follows: in vitro. The settings on record: human, liver microsomes.
Data set [14] in a line: in vitro. The settings on record: human, liver.
The nature of data set [15]: in vitro. The settings on record: human, liver microsomes. This is another data set of the same source.
Description: Stability in human liver microsomes assessed as parent compound remaining at 1 uM incubated for 60 mins in presence of NADPH by LC-MS/MS analysis

T1 sequence (P34972 whole entry): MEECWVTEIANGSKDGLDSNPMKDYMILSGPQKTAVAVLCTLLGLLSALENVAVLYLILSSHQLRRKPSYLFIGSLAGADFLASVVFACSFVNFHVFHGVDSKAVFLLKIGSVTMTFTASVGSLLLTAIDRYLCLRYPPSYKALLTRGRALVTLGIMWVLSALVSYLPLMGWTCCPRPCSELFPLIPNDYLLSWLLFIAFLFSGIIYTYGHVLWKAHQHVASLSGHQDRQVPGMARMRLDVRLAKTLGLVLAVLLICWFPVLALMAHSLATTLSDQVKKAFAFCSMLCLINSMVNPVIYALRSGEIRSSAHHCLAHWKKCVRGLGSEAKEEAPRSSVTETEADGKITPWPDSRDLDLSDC

For the compound `CC(C)(CO)NC(=O)c1cc(C(C)(C)C)n(-c2ccc(C(F)(F)F)cn2)n1`, the pEC50 on Cannabinoid receptor 1 was 5.74; on Cannabinoid receptor 2 [1], 7.82; on Cannabinoid receptor 2 [6], 7.97. Besides, the Emax at Cannabinoid receptor 2 [2] stood at 100%. The Vd in data set [3] worked out at 9.2 L/kg. In data set [4], this compound showed a half-life of 1.32 h. This compound also registered a bioavailability in data set [5] of 79.5%. Moreover, the outcome in data set [7] and in [8] was inactive. The result in the data set on Mus musculus [9], in the data set on Mus musculus [11] and in the data set with Mus musculus [12] was Active. In addition, the Activity result in data set [10] is given as “Non-Toxic”. This compound also yielded a microsomal CLint at 1 µM in the data set “in vitro [13]” of 12.3 µL/min/mg. The same compound yielded a CLint scaled at 1 µM in the data set “in vitro [14]” of 11.1 mL/min/kg. Further, in the data set “in vitro [15]”, the share remaining at 1 h, 1 µM came out at 64%.
